Measured values reported in patent publication US20110105509A1 (Wyeth, LLC, priority 2009, published 2011).

target: T1, CRTH2 (Homo sapiens, UniProt Q9Y5Y4); experiment: FRET based competitive immunoassay (cAMP) in CRTH2 expressing CHO cells; type: cell-based; conditions: CRTH2 expressing CHO cells incubated with forskolin and PGD2; Eu3+ cryptate-labeled anti-cAMP and d2-labeled cAMP
T1 construct: expressed in transfected cells; host or cells: CHO cells
T1 sequence (Q9Y5Y4 1-395): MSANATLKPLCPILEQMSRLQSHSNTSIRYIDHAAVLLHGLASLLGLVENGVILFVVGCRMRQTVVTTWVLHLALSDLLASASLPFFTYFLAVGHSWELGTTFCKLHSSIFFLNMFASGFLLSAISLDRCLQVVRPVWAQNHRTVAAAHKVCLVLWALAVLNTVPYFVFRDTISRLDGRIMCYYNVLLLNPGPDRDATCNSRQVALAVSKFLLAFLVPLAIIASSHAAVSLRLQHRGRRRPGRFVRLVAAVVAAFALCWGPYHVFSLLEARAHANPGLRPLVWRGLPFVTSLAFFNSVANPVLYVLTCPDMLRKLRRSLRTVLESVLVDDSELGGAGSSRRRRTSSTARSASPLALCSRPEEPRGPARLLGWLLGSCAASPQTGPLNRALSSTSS
Protocol: FRET Assay: To evaluate potency compounds were tested in a FRET based competitive immunoassay in which CRTH2 expressing CHO cells were incubated in the presence of forskolin and PGD2 along with Eu3+ cryptate-labeled anti-cAMP and d2-labeled cAMP.

| SMILES | IC50 |
| --- | --- |
| Cc1nnc(Cn2nc(-c3c(C)n(CC(=O)O)c4ccc(F)cc34)ccc2=O)[nH]1 [Example 260b, 2-(5-fluoro-2-methyl-3-(1-((5-methyl-4H-1,2,4-triazol-3-yl)methyl)-6-oxo-1,6-dihydro-pyridazin-3-yl)-1H-indol-1-yl)acetic acid] | 1650 nM |
| COc1ccc(C(=O)n2c(C)c(-c3ccc(=O)n(Cc4ccccc4)n3)c3cc(F)ccc32)cc1 [Example 262a, 2-benzyl-6-(5-fluoro-1-(4-methoxybenzoyl)-2-methyl-1H-indol-3-yl)-pyridazin-3(2H)-one] | > 10000 nM |
| Cc1c(-c2ccc(=O)n(Cc3ccccc3)n2)c2cc(F)ccc2n1C(=O)c1cccnc1 [Example 262b, 2-benzyl-6-(5-fluoro-2-methyl-1-nicotinoyl-1H-indol-3-yl)pyridazin-3(2H)-one] | > 10000 nM |
| Cc1c(-c2ccc(=O)n(Cc3ccccc3)n2)c2cc(F)ccc2n1Cc1ccccc1 [Example 262c, 6-(1-benzyl-5-fluoro-2-methyl-1H-indol-3-yl)-2-benzylpyridazin-3(2H)-one] | > 10000 nM |
| Cc1c(-c2ccc(=O)n(Cc3ccccc3)c2)c2ccccc2n1CC(=O)O [Example 263, 2-(3-(1-benzyl-6-oxo-1,6-dihydropyridin-3-yl)-2-methyl-1H-indol-1-yl)acetic acid] | 42 nM |
| Cc1c(-c2nn(Cc3nnc[nH]3)c(=O)c3ccccc23)c2cc(F)ccc2n1CC(=O)O [Example 270, 2-(3-(3-((4H-1,2,4-triazol-3-yl)methyl)-4-oxo-3,4-dihydrophthalazin-1-yl)-5-fluoro-2-methyl-1H-indol-1-yl)acetic acid] | > 5500 nM |
| Cc1c(-c2ccc(=O)n(Cc3ccc(F)cc3F)c2)c2cc(F)ccc2n1CC(=O)O [Example 273, 2-(3-(1-(2,4-difluorobenzyl)-6-oxo-1,6-dihydropyridin-3-yl)-5-fluoro-2-methyl-1H-indol-1-yl)acetic acid] | 28 nM |
| Cc1c(-c2ccc(=O)n(Cc3ccc(F)cc3F)c2)c2ccccc2n1CC(=O)O [Example 275, 2-(3-(1-(2,4-difluorobenzyl)-6-oxo-1,6-dihydropyridin-3-yl)-2-methyl-1H-indol-1-yl)acetic acid] | 30 nM |
| Cc1c(-c2ccc(=O)n(C(C)C)c2)c2ccccc2n1CC(=O)O [Example 276, 2-(3-(1-isopropyl-6-oxo-1,6-dihydropyridin-3-yl)-2-methyl-1H-indol-1-yl)-acetic acid] | 577 nM |
| Cc1c(-c2ccc(OC(C)C)nc2)c2cc(F)ccc2n1CC(=O)O [Example 277] | 71 nM |
| Cc1c(-c2ccc(=O)n(C(C)C)c2)c2cc(Cl)ccc2n1CC(=O)O [Example 278, 2-(5-chloro-3-(1-isopropyl-6-oxo-1,6-dihydropyridin-3-yl)-2-methyl-1H-indol-1-yl)acetic acid] | 198 nM |
| Cc1c(-c2ccc(=O)n(CC(F)(F)F)c2)c2ccccc2n1CC(=O)O [Example 279, 2-(2-methyl-3-(6-oxo-1-(2,2,2-trifluoroethyl)-1,6-dihydropyridin-3-yl)-1H-indol-1-yl)acetic acid] | 715 nM |
| Cc1c(-c2ccc(=O)n(CC(F)(F)F)c2)c2cc(F)ccc2n1CC(=O)O [Example 280, 2-(5-Fluoro-2-methyl-3-(6-oxo-1-(2,2,2-trifluoroethyl)-1,6-dihydropyridin-3-yl)-1H-indol-1-yl)acetic acid] | 117 nM |
| Cc1c(-c2ccc(=O)n(CC(F)(F)F)c2)c2cc(Cl)ccc2n1CC(=O)O [Example 281, 2-(5-chloro-2-methyl-3-(6-oxo-1-(2,2,2-trifluoroethyl)-1,6-dihydropyridin-3-yl)-1H-indol-1-yl)acetic acid] | 240 nM |
| Cc1c(-c2ccc(=O)n(CC(C)C)c2)c2ccccc2n1CC(=O)O [Example 287, 2-(3-(1-isobutyl-6-oxo-1,6-dihydropyridin-3-yl)-2-methyl-1H-indol-1-yl)-acetic acid] | 305 nM |
| Cc1c(-c2ccc(=O)n(C3CCCC3)c2)c2ccccc2n1CC(=O)O [Example 288, 2-(3-(1-cyclopentyl-6-oxo-1,6-dihydropyridin-3-yl)-2-methyl-1H-indol-1-yl)-acetic acid] | 117 nM |

These reach a lower IC50. Values come first.

| IC50 | SMILES |
| --- | --- |
| 11 nM | Cc1c(-c2nn(Cc3ncnn3-c3ccccc3)c(=O)c3ccccc23)c2cc(F)ccc2n1CC(=O)O [Example 261, 2-(5-fluoro-2-methyl-3-(4-oxo-3-((1-phenyl-1H-1,2,4-triazol-5-yl)methyl)-3,4-dihydrophthalazin-1-yl)-1H-indol-1-yl)acetic acid] |
| 10 nM | Cc1c(-c2ccc(=O)n(Cc3ccccc3)c2)c2cc(Cl)ccc2n1CC(=O)O [Example 264, 2-(3-(1-benzyl-6-oxo-1,6-dihydropyridin-3-yl)-5-chloro-2-methyl-1H-indol-1-yl)acetic acid] |
| 5 nM | Cc1c(-c2ccc(=O)n(Cc3ccccc3)c2)c2cc(F)ccc2n1CC(=O)O [Example 265, 2-(3-(1-benzyl-6-oxo-1,6-dihydropyridin-3-yl)-5-fluoro-2-methyl-1H-indol-1-yl)acetic acid] |
| 9 nM | Cc1c(-c2ccc(=O)n(Cc3ccccc3F)c2)c2cc(F)ccc2n1CC(=O)O [Example 266, 2-(5-fluoro-3-(1-(2-fluorobenzyl)-6-oxo-1,6-dihydropyridin-3-yl)-2-methyl-1H-indol-1-yl)acetic acid] |
| 6 nM | Cc1c(-c2ccc(=O)n(Cc3ccc(F)cc3)c2)c2cc(F)ccc2n1CC(=O)O [Example 267, 2-(5-fluoro-3-(1-(4-fluorobenzyl)-6-oxo-1,6-dihydropyridin-3-yl)-2-methyl-1H-indol-1-yl)acetic acid] |
| 7 nM | Cc1c(-c2ccc(=O)n(Cc3c(F)cccc3F)c2)c2cc(F)ccc2n1CC(=O)O [Example 268, 2-(3-(1-(2,6-difluorobenzyl)-6-oxo-1,6-dihydropyridin-3-yl)-5-fluoro-2-methyl-1H-indol-1-yl)acetic acid] |
| 1 nM | Cc1c(-c2ccc(=O)n(Cc3cccc(F)c3F)c2)c2cc(F)ccc2n1CC(=O)O [Example 269, 2-(3-(1-(2,3-difluorobenzyl)-6-oxo-1,6-dihydropyridin-3-yl)-5-fluoro-2-methyl-1H-indol-1-yl)acetic acid] |
| 12 nM | Cc1c(-c2ccc(=O)n(Cc3cc(F)c(F)cc3F)c2)c2cc(F)ccc2n1CC(=O)O [Example 271, 2-(5-Fluoro-2-methyl-3-(6-oxo-1-(2,4,5-trifluorobenzyl)-1,6-dihydropyridin-3-yl)-1H-indol-1-yl)acetic acid] |
| 23 nM | Cc1c(-c2cn(CCC(C)(C)O)c(=O)c3ccccc23)c2cc(F)ccc2n1CC(=O)O [Example 272, 2-(5-fluoro-3-(2-(3-hydroxy-3-methylbutyl)-1-oxo-1,2-dihydroisoquinolin-4-yl)-2-methyl-1H-indol-1-yl)acetic acid] |
| 3 nM | Cc1c(-c2ccc(=O)n(Cc3ccc(F)cc3F)c2)c2cc(Cl)ccc2n1CC(=O)O [Example 274, 2-(5-chloro-3-(1-(2,4-difluorobenzyl)-6-oxo-1,6-dihydropyridin-3-yl)-2-methyl-1H-indol-1-yl)acetic acid] |
| 11 nM | Cc1c(-c2ccc(=O)n(Cc3ccccc3F)c2)c2ccccc2n1CC(=O)O [Example 282, 2-(3-(1-(2-fluorobenzyl)-6-oxo-1,6-dihydropyridin-3-yl)-2-methyl-1H-indol-1-yl)acetic acid] |
| 16 nM | Cc1c(-c2ccc(=O)n(Cc3ccc(F)cc3)c2)c2ccccc2n1CC(=O)O [Example 283, 2-(3-(1-(4-fluorobenzyl)-6-oxo-1,6-dihydropyridin-3-yl)-2-methyl-1H-indol-1-yl)acetic acid] |
| 15 nM | Cc1c(-c2ccc(=O)n(Cc3cccc(F)c3F)c2)c2ccccc2n1CC(=O)O [Example 284, 2-(3-(1-(2,3-difluorobenzyl)-6-oxo-1,6-dihydropyridin-3-yl)-2-methyl-1H-indol-1-yl)acetic acid] |
| 23 nM | Cc1c(-c2ccc(=O)n(Cc3c(F)cccc3F)c2)c2ccccc2n1CC(=O)O [Example 285, 2-(3-(1-(2,6-difluorobenzyl)-6-oxo-1,6-dihydropyridin-3-yl)-2-methyl-1H-indol-1-yl)acetic acid] |
| 11 nM | Cc1c(-c2ccc(=O)n(Cc3cc(F)c(F)cc3F)c2)c2ccccc2n1CC(=O)O [Example 286, 2-(2-methyl-3-(6-oxo-1-(2,4,5-trifluorobenzyl)-1,6-dihydropyridin-3-yl)-1H-indol-1-yl)acetic acid] |
| 6 nM | Cc1c(-c2ccc(=O)n(Cc3ccc(F)cc3)c2)c2cc(Cl)ccc2n1CC(=O)O [Example 289, 2-(5-chloro-3-(1-(4-fluorobenzyl)-6-oxo-1,6-dihydropyridin-3-yl)-2-methyl-1H-indol-1-yl)acetic acid] |
| 7 nM | Cc1c(-c2ccc(=O)n(Cc3ccccc3F)c2)c2cc(Cl)ccc2n1CC(=O)O [Example 290, 2-(5-chloro-3-(1-(2-fluorobenzyl)-6-oxo-1,6-dihydropyridin-3-yl)-2-methyl-1H-indol-1-yl)acetic acid] |
| 8 nM | Cc1c(-c2ccc(=O)n(Cc3c(F)cccc3F)c2)c2cc(Cl)ccc2n1CC(=O)O [Example 291, 2-(5-chloro-3-(1-(2,6-difluorobenzyl)-6-oxo-1,6-dihydropyridin-3-yl)-2-methyl-1H-indol-1-yl)acetic acid] |
| 11 nM | Cc1c(-c2ccc(=O)n(Cc3cccc(F)c3F)c2)c2cc(Cl)ccc2n1CC(=O)O [Example 292, 2-(5-Chloro-3-(1-(2,3-difluorobenzyl)-6-oxo-1,6-dihydropyridin-3-yl)-2-methyl-1H-indol-1-yl)acetic acid] |
